Laboratory results as given in EPA's ToxValDB 9.5 (doi:10.2903/j.efsa.2006.68r).
In brackets after ≈: the same amount, converted by molar mass.

How the values were obtained:
Apis mellifera = conditions: acute, mortality
Bibionidae = conditions: chronic/long-term; duration: 28 days
Daphnia magna = conditions: chronic/long-term; duration: 21 days
Oryctolagus sp. = conditions: reproduction developmental; clinical signs
Rattus norvegicus = conditions: for NOAEL: neurology
Aphidius rhopalosiphi = experiment: LR50; higher = less toxic; conditions: not reported; mortality
Typhlodromus pyri = experiment: LR50; higher = less toxic; conditions: not reported; mortality

CCOP(=O)(SC(C)CC)SC(C)CC (configuration not stated) [Cadusafos]
LD50 (Apis mellifera; dermal): 1.8 µg/piece
LD50 (Apis mellifera; oral, unspecified): 2.07 µg/piece
NOEC (Bibionidae): 32 µg/kg
LC50 (Colinus virginianus; acute, oral, diet, mortality): 10.8 mg/kg-day
LD50 (Colinus virginianus; acute, oral, mortality): 16.1 mg/kg-day
NOEL (Colinus virginianus; reproduction developmental): ≥ 1.1 mg/kg-day
NOEC (Daphnia magna): 0.231 mg/L
LC50 (Oncorhynchus mykiss; acute, duration: 96 hours, mortality): 130 µg/mL (≈ 481 µM)
NOEC (Oncorhynchus mykiss; chronic/long-term, duration: 95 days): 5.22 mg/L
NOAEL (Oryctolagus sp.): 0.3 mg/kg-day
LC50 (Pontoscolex corethrurus; acute, mortality): 12.5 mg/kg
NOEC (Pontoscolex corethrurus; chronic/long-term, reproduction): 1.8 mg/kg
LD50 (Rattus norvegicus; acute, oral, mortality): 37.1 mg/kg
NOAEL (Rattus norvegicus; chronic, duration: 2 years, F): 0.045 mg/kg-day
NOAEL (Rattus norvegicus; subchronic, duration: 90 days, oral, diet): 0.067 mg/kg-day
LR50 (Aphidius rhopalosiphi): 3.75 g/ha
LR50 (Typhlodromus pyri): 44.4 g/ha
